In patent US20220362396A1, “AMINO-PYRAZINECARBOXAMIDE COMPOUNDS, CONJUGATES, AND USES THEREOF” (Silverback Therapeutics, Inc., priority 2018, published 2022):
“Also recorded” adds a separate entry of the source.

T1: full length human LRRC15 (human, UniProt Q8TF66 22-581)
T1 sequence (looked up): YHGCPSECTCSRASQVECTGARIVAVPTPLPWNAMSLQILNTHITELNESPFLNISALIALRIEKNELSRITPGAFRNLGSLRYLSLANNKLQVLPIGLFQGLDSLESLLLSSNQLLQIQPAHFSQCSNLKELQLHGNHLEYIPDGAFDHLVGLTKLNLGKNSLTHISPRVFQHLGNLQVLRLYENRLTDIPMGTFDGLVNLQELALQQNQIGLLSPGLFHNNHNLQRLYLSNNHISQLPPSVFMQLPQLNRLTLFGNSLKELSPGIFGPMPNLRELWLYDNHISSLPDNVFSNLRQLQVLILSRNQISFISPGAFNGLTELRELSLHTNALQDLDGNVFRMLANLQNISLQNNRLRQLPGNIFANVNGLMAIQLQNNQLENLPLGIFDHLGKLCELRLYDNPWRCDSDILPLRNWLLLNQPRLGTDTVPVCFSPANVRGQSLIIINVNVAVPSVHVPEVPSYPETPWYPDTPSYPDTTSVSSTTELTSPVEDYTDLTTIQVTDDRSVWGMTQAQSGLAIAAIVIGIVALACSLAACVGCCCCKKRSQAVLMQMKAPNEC

B1: anti-LRRC15 humanized IgG1 M25 antibody with Fc null domain conjugated to LP1 (antibody, V domains shown)
VH: EVQLVQSGAEVKKPGASVKVSCKASGYKFSSYWIEWVKQAPGQGLEWIGEILPGSDTTNYNEKFKDRATFTSDTSINTAYMELSRLRSDDTAVYYCARDRGNYRAWFGYWGQGTLVTVSS
VL: DIQMTQSPSSLSASVGDRVTITCRASQDISNYLNWYQQKPGGAVKFLIYYTSRLHSGVPSRFSGSGSGTDYTLTISSLQPEDFATYFCQQGEALPWTFGGGTKVEIK
modifications: linker-payload LP1 on interchain disulfide cysteines, average DAR 2.5-4
B2: anti-LRRC15 humanized IgG1 M25 antibody with Fc null domain conjugated to LP10 (antibody, V domains shown)
VH: EVQLVQSGAEVKKPGASVKVSCKASGYKFSSYWIEWVKQAPGQGLEWIGEILPGSDTTNYNEKFKDRATFTSDTSINTAYMELSRLRSDDTAVYYCARDRGNYRAWFGYWGQGTLVTVSS
VL: DIQMTQSPSSLSASVGDRVTITCRASQDISNYLNWYQQKPGGAVKFLIYYTSRLHSGVPSRFSGSGSGTDYTLTISSLQPEDFATYFCQQGEALPWTFGGGTKVEIK
modifications: linker-payload LP10 on interchain disulfide cysteines, average DAR 2.5-4

Experiments:
[1] = tested on: TGFβ-inducible genes in PANC-1 tumors; experiment: Intra-tumoral injection of TGFβR2 inhibitors, PANC-1 xenograft, RT-qPCR of tumors; format: in vivo, nude mice; conditions: PANC-1, 2 ug intra-tumoral QD5, tumors 4 h after last injection, vs DMSO vehicle
Protocol: (§1) TGFβR2 inhibitors were tested for their ability to alter expression in vivo of a set of genes reported to be regulated by TGFβ, particularly those associated with tumor CAFs. Two million BXCP3 (ATTC) or 5 million PANC-1 (ATTC) cells in Matrigel (Corning Life Sciences) were inoculated into the flanks of nude mice (JAX Labs) and allowed to grow to approximately 100 mm3 in size before sorting into cohorts for treatment. BXPC3 tumors were treated by intra-tumoral injection (IT) of 2 ug QD5 of either compound 211, compound 171 or equal volume of DMSO vehicle while PANC-1 tumors received 2 ug injections QD5 of compound 211 or vehicle control. Four hours after the last injection tumors were removed and processed for RT-qPCR by homogenization in M tubes (Miltenyi Biotec) using Purelink RNA Kit (Ambion) to isolate RNA and Taqman® RNA to CT 1 Step Kit (Applied Biosystems) with a OneStepPlus Thermocycler. Gene specific primers were obtained from ThermoFisher Scientific. […] Data was analyzed and graphed using GraphPad Prism v8.1.0. Statistical difference for gene mRNA expression between TGFβR2 inhibitor and vehicle treated cohorts was determined using multiple T test comparison with discovery (FDR) by the two-stage linear step-up procedure of Benjamini, Krieger and Yekutieli, with Q=5%. Each row was analyzed individually, without assuming a consistent SD.

[2] = tested on: TGFβ/SMAD Signaling Pathway SBE reporter cell line; experiment: TGFβ reporter assay, in vitro small molecule screening (luciferase); format: cell-based; conditions: TGFβ stimulation, luminescence
In short: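 SBE luciferase reporter cells (~0.5×10^6 cells/mL) preincubated with compound 5-6 h at 37 °C in 0.5% FBS MEM, then stimulated with TGFβ (12 ng/mL stock) for 18 h. Luminescence read after luciferase substrate; EC50 from curve fits.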

[3] = tested on: TGFβ-inducible genes in BXPC3 tumors; experiment: Intra-tumoral injection of TGFβR2 inhibitors, BXPC3 xenograft, RT-qPCR of tumors; format: in vivo, nude mice; conditions: BXPC3, 2 ug intra-tumoral QD5, tumors 4 h after last injection, vs DMSO vehicle
Protocol: as §1

TGFBR2 = molecular target: T2, TGFBR2 (Homo sapiens, UniProt P37173); experiment: TGFBR2 RBC assay (enzyme inhibition assay, Reaction Biology Corp.); format: biochemical
T2 construct: purchased Reaction Biology Corp
T2 sequence (P37173 23-567): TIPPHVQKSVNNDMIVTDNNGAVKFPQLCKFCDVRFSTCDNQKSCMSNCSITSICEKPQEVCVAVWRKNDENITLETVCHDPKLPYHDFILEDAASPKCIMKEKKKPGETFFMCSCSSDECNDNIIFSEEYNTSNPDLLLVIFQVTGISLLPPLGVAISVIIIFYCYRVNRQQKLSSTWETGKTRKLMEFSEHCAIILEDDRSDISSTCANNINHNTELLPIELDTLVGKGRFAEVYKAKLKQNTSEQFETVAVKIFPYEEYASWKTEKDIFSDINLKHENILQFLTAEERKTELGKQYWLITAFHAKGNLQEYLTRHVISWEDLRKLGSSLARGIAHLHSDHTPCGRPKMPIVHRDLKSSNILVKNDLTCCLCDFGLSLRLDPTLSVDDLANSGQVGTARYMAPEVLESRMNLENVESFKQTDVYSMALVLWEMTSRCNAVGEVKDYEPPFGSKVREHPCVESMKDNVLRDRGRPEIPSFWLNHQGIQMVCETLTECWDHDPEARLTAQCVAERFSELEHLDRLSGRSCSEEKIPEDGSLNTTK
Protocol: Compounds of the disclosure were also assayed by Reaction Biology Corp. using the TGFBR2 RBC assay (enzyme inhibition assay). […] NT refers to not tested.

[4] = tested on: αSMA gene expression in LL97a cells; experiment: qPCR of TGFβ-induced αSMA mRNA in LL97a IPF fibroblasts; format: cell-based, human; conditions: small molecules, TGFβ 24 hours, concentration dependent
Protocol: (§2) The ability of select small molecules to lower a TGFβ 1-induced mRNA were tested in assays with the cell line LL97a (ATCC) as follows. LL97a cells were seeded in 96 well plates at 10,000 cells/well in DMEM+10% FBS+1% NaPyr, +1% L-glut, +1% NEAA, +1% HEPES+0.5% Pen/Strep. The following day test articles and controls were added at varying concentrations in assay media of DMEM+0.5% BSA along with 0.5 ng/mL TGFβ1 (PeproTech Inc.) was added to wells. After 24 hours or 48 hours incubation with TGFβ1 at 37 C in a 5% CO2 environment RNA was prepared from cells and QPCR performed for the TGFβ-inducible genes αSMA and elastin as well as the non-inducible control gene RPLPO with a Tagman® Gene Expression Cells-to-CT 1—Step Kit (Life Technologies Inc.) and with a One Step Plus Thermocycler (Applied Biosystems) as per manufacturers' recommendations. Primer probe sets were obtained from ThermoFisher Scientific.
Compounds 2.1 and 171 were covalently attached to an anti-LRRC15 antibody using different protease cleavable PABC linkers. […] Average DAR level of the purified species was determined by analysis via hydrophobic interaction chromatography (HIC) using TSK-gel butyl NPR (Tosoh Bioscience LLC) and by LCMS (Waters Corp.) and they were tested for their ability to reduce αSMA and elastin gene induction by TGFβ in the LL97a and NHLF human fibroblast cell lines using a qPCRassay. […]

[5] = tested on: elastin gene expression in LL97a cells; experiment: qPCR of TGFβ-induced elastin mRNA in LL97a IPF fibroblasts; format: cell-based, human; conditions: small molecules, TGFβ 24 hours, concentration dependent
Protocol: as §2

full length human LRRC15 = molecular target: T1, full length human LRRC15; experiment: cell-based or functional assay

Molecule	EC50 [2] [nM]	IC50 (TGFBR2) [nM]	other results
CC(CN)Oc1ccc(-c2cnc(N)c(C(=O)Nc3cnccc3N3CCOCC3)n2)cc1 (stereo not shown) [Compound 211]	< 50	< 50	mRNA level of TGFβ-inducible genes in tumors [1]: reduces the mRNA level; also recorded: decreased many TGFβ-inducible gene mRNAs; mRNA level of TGFβ-inducible genes in tumors [3]: reduce the mRNA level; also recorded: reduced the mRNA level of most TGFβ-inducible genes
Nc1ncc(-c2ccc3c(c2)C(O)CC3)nc1C(=O)Nc1cnccc1N1CCOCC1 (stereo not shown) [Compound 250]	100 to 1000	< 50	inhibition of TGFβ-induction of αSMA gene expression [4]: inhibits; inhibition of TGFβ-induction of elastin gene expression [5]: inhibits
CC(CNC(=O)OC(C)(C)C)Oc1cccc(-c2cnc(N)c(C(=O)Nc3cnccc3N3CCOCC3)n2)c1 (stereo not shown) [Compound 191]	> 1000	< 50	–
CNc1ccc(-c2cnc(N)c(C(=O)Nc3cnccc3N3CCOCC3)n2)cc1 [Compound 260]	< 50	< 50	–
CCOC(=O)[C@@H]1CN(Cc2ccccc2)C[C@H]1c1ccc(-c2cnc(N)c(C(=O)Nc3cnccc3N3CCOCC3)n2)cc1 [Compound 226]	100 to 1000	< 50	–
Nc1ncc(-c2ccc(N3CCNCC3=O)cc2)nc1C(=O)Nc1cnccc1N1CCOCC1 [Compound 84]	100 to 1000	100 to 1000	–
Nc1ncc(-c2ccc(CCNC(=O)OCc3ccccc3)cc2F)nc1C(=O)Nc1cnccc1N1CCOCC1 [Compound 50]	100 to 1000	< 50	–
Nc1ncc(-c2cccc(CNC(=O)OCc3ccccc3)c2)nc1C(=O)Nc1cnccc1N1CCOCC1 [Compound 176]	100 to 1000	< 50	–
B1	–	–	absolute IC50 of TGFβ1-induced SMAD2 promoter luciferase activity, HEK293 reporter cells expressing human LRRC15 (full length human LRRC15): < 10 nM
B2	–	–	absolute IC50 of TGFβ1-induced SMAD2 promoter luciferase activity, HEK293 reporter cells expressing human LRRC15 (full length human LRRC15): < 10 nM
